The values that follow come from BindingDB's records for doi:10.1021/acschembio.6b00217 (Broad Institute, 2016).

Some results are limits rather than exact numbers.

Serine/threonine-protein kinase SIK2, sequence (Q9H0K1 whole entry): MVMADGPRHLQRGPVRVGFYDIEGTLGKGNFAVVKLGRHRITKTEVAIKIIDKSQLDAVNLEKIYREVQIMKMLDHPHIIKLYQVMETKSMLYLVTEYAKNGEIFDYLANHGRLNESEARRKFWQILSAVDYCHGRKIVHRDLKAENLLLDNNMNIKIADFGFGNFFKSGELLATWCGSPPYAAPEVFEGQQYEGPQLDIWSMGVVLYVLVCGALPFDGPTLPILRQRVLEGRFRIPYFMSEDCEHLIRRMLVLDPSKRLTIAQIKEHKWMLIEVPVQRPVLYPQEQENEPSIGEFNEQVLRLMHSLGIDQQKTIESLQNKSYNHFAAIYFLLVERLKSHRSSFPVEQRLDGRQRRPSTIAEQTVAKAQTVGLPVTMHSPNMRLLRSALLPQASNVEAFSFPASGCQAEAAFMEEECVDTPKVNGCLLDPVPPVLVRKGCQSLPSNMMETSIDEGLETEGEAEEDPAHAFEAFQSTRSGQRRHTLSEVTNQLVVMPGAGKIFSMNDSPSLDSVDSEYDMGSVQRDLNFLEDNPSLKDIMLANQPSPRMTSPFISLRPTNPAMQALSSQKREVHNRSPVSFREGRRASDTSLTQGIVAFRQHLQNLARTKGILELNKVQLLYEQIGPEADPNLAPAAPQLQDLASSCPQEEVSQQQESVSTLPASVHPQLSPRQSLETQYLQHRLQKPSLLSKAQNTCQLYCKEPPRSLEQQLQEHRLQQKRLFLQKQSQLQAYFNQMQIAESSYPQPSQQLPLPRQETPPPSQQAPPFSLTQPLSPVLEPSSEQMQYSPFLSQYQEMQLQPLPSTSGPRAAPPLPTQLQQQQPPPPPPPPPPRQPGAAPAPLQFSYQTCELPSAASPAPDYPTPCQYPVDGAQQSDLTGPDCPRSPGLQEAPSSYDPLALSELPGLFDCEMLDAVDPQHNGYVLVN

The target of this test is Serine/threonine-protein kinase SIK2 (Homo sapiens, UniProt Q9H0K1). In words: Caliper-based Mobility Shift Assay. As to conditions: pH 8. As to the method:
IC50‘s for HG-9-91-01 derivatives were measured by Caliper-based mobility shift assay (PerkinElmer). […] Reactions were quenched by adding 20 mM EDTA (pH 8) after 1 hr, and percentage of substrate conversion was measured by LabChip EZ Reader II (PerkinElmer).
A word on the IC50: it is the midpoint of a concentration-inhibition curve. `COc1ccc(N2C(=O)N(c3c(C)cccc3Cl)Cc3cnc(Nc4ccc(N5CCN(C)CC5)cc4)nc32)nc1` [YKL-05-095 (3)]: the half-inhibitory concentration (IC50) turned out to be 6 nM. Turning to `COc1ccc(N2C(=O)N(c3c(C)cccc3Cl)Cc3cnc(Nc4ccc(N5CCN(C)CC5)cc4OC)nc32)nc1` [YKL-05-096 (4)], the IC50 is 34 nM.

As for `CCOc1cc(C2CCN(C)CC2)ccc1Nc1ncc2c(n1)N(c1ccc(OC)cn1)C(=O)N(c1c(C)cccc1Cl)C2` [HG-9-91-01 derivative, 6], the IC50 stood at 150 nM. `COc1ccc(N2C(=O)N(c3c(C)cccc3C)Cc3cnc(Nc4ccc(C5CCN(C)CC5)cc4OC(C)C)nc32)nc1` [HG-9-91-01 derivative, 7]: the IC50 is above 7000 nM.
